Results from patent US9937161B2, “Combinatorial compositions and methods for treatment of melanoma” (THE GENERAL HOSPITAL CORPORATION, priority 2013, dated 2018).

Key:
MEK1/2 = details: cited from earlier work
melanoma cells (M14) = assay: Cell number, mitochondrial inhibitors combined with PLX4720
Protocol: (§1) Melanoma cell were treated for 24 h with PLX4720 then mitochondrial uncoupler for 48 h, prior to estimation of cell number.
as §1
Cell number was calculated using the CYQUANT® assay (INVITROGEN™) or crystal violet staining. Lactate measurements were done using the Lactate Assay (BioVision or SIGMA®) per manufacturer's protocols. Indicated cell lines were plated in complete media overnight. Media was changed to serum free-media to avoid interference with the assay for 16 h with either PLX4720 (3 μM) or PLX4032 (1 μM) or vehicle control prior to harvesting cells and measurement of lactate. Results were normalized to cell number. All assays were performed in logarithmically growing cells.

MEK = details: cited from earlier work
[1] = system: BRAF-mutant non-melanomas; assay: Gene set enrichment analysis of non-melanomas treated with PD0325901
melanoma cell lines [2] = assay: PGC1α mRNA by quantitative PCR, MEK inhibitor; details: 10 nM, 24 h; all cell lines tested, including BRAF wild-type MeWo
melanoma cell lines [3] = assay: Gene set enrichment analysis of melanoma cell lines treated with PD0325901
melanoma cell lines [4] = assay: phospho-ERK Western blot, MEK inhibitor; assay type: cell-based; details: 10 nM, 24 h; all cell lines tested, including BRAF wild-type MeWo
Protocol: Whole cell lysates were prepared in lysis buffer supplemented with protease and phosphatase inhibitors (Roche). Equal amounts of protein were resolved by electrophoresis on gradient gels (Bio-Rad).
Antibodies used were as follows: MITF (C5 hybridoma); PGC1α (Calbiochem); α-tubulin (clone DM1A, Sigma); GAPDH, phospho-ERK1/2, and ERK1/2 (Cell Signaling Technology). Melanoma biopsies prior and during treatment were sectioned, embedded in paraffin and stained with the phospho-ERK1/2 antibody (Cell Signaling Technology). PLX4720 was used at 1 μM concentration in all assays, whereas control samples were treated with an equal volume of DMSO.

[5] = system: TRPM1 and other direct targets of MITF; assay: Expression of MITF targets (microarray, qtPCR); details: published microarrays and qtPCR
[6] = system: 12 breast, lung, colon and melanoma cell lines; assay: Public microarray (GSE10086) of PGC1α mRNA; details: 10 nM, 24 h; p<0.0001
KIT mutated melanoma = details: case reports, retrospective and phase II studies; cited from earlier work
apoptosis = assay: Apoptosis, tigecycline with PLX4720; assay type: cell-based; details: combination with PLX4720
[7] = PD0325901, non-melanomas (N=7), gene set size 16
[8] = PD0325901, non-melanomas (N=7), gene set size 17
[9] = PD0325901, non-melanomas (N=7), gene set size 19
[10] = PD0325901, non-melanomas (N=7), gene set size 21
[11] = PD0325901, non-melanomas (N=7), gene set size 22
[12] = PD0325901, non-melanomas (N=7), gene set size 27
[13] = PD0325901, non-melanomas (N=7), gene set size 29
[14] = PD0325901, non-melanomas (N=7), gene set size 53
[15] = PD0325901, non-melanomas (N=7), gene set size 55
[16] = PD0325901, non-melanomas (N=7), gene set size 65
[17] = PD0325901, non-melanomas (N=7), gene set size 66
[18] = PD0325901, non-melanomas (N=7), gene set size 73
[19] = PD0325901 treated melanoma cell lines (n = 5), gene set size 15
[20] = PD0325901 treated melanoma cell lines (n = 5), gene set size 17
[21] = PD0325901 treated melanoma cell lines (n = 5), gene set size 19
[22] = PD0325901 treated melanoma cell lines (n = 5), gene set size 20
[23] = PD0325901 treated melanoma cell lines (n = 5), gene set size 21
[24] = PD0325901 treated melanoma cell lines (n = 5), gene set size 22
[25] = PD0325901 treated melanoma cell lines (n = 5), gene set size 24
[26] = PD0325901 treated melanoma cell lines (n = 5), gene set size 28
[27] = PD0325901 treated melanoma cell lines (n = 5), gene set size 44
[28] = PD0325901 treated melanoma cell lines (n = 5), gene set size 49
[29] = PD0325901 treated melanoma cell lines (n = 5), gene set size 55
[30] = PD0325901 treated melanoma cell lines (n = 5), gene set size 76
[31] = PD0325901 treated melanoma cell lines (n = 5), gene set size 107

Cc1cc(C(=O)NOCCO)c(Nc2ccc(I)cc2F)n(C)c1=O [AZD8330]
IC50 (MEK1/2): 7 nM

N#CC(C#N)=NNc1cccc(Cl)c1 [CCCP]
sensitivity of cells to the agent alone (melanoma cells (M14); M14 cells, 72 hrs): relatively insensitive

O=C(NOC[C@H](O)CO)c1ccc(F)c(F)c1Nc1ccc(I)cc1F [PD0325901]
enrichment of oxidative phosphorylation or citric acid cycle gene sets ([1]; BRAF-mutant non-melanomas treated with PD0325901): no enrichment | ES, INSULIN_NIH3T3_UP [1, 7]: −0.6535 | NES, INSULIN_NIH3T3_UP [1, 7]: −1.926 | ES, ERK5PATHWAY [1, 8]: −0.4831 | ES, SCHURINGA_STAT5A_DN [1, 8]: −0.6396 | NES, ERK5PATHWAY [1, 8]: −1.639 | NES, SCHURINGA_STAT5A_DN [1, 8]: −1.67 | ES, PASSERINI_OXIDATION [1, 9]: −0.5358 | NES, PASSERINI_OXIDATION [1, 9]: −1.657 | ES, LOTEM_LEUKEMIA_UP [1, 10]: −0.6144 | ES, ST_GA12_PATHWAY [1, 10]: −0.5512 | NES, LOTEM_LEUKEMIA_UP [1, 10]: −1.935 | NES, ST_GA12_PATHWAY [1, 10]: −1.683 | ES, MPRPATHWAY [1, 11]: −0.5726 | NES, MPRPATHWAY [1, 11]: −1.724 | ES, HSA00566_ETHER_LIPID_METABOLISM [1, 12]: −0.6099 | ES, HSA00591_LINOLEIC_ACID_METABOLISM [1, 12]: −0.6262 | NES, HSA00566_ETHER_LIPID_METABOLISM [1, 12]: −1.836 | NES, HSA00591_LINOLEIC_ACID_METABOLISM [1, 12]: −1.85 | ES, HDACPATHWAY [1, 13]: −0.524 | NES, HDACPATHWAY [1, 13]: −1.695 | ES, HDACI_COLON_CLUSTER9 [1, 14]: −0.4566 | NES, HDACI_COLON_CLUSTER9 [1, 14]: −1.716 | ES, HSA00010_GLYCOLYSIS_AND_GLUCONEOGENESIS [1, 15]: −0.4307 | NES, HSA00010_GLYCOLYSIS_AND_GLUCONEOGENESIS [1, 15]: −1.651 | ES, MUNSHI_MM_UP [1, 16]: −0.4503 | NES, MUNSHI_MM_UP [1, 16]: −1.811 | ES, HSA04370_VEGF_SIGNALING_PATHWAY [1, 17]: −0.4932 | NES, HSA04370_VEGF_SIGNALING_PATHWAY [1, 17]: −1.946 | ES, HSA04664_FC_EPSILON_RI_SIGNALING_PATHWAY [1, 18]: −0.4516 | NES, HSA04664_FC_EPSILON_RI_SIGNALING_PATHWAY [1, 18]: −1.711 | PGC1α mRNA (melanoma cell lines [2]): induction | ES, SARCOMAS_LEIOMYOSARCOMA_CALP_UP (melanoma cell lines [3]; [19]): −0.5939 | NES, SARCOMAS_LEIOMYOSARCOMA_CALP_UP (melanoma cell lines [3]; [19]): −1.618 | ES, TIS7_OVEREXP_DN (melanoma cell lines [3]; [20]): −0.6059 | NES, TIS7_OVEREXP_DN (melanoma cell lines [3]; [20]): −1.666 | ES, ATP_SYNTHESIS (melanoma cell lines [3]; [21]): −0.5886 | ES, FLAGELLAR_ASSEMBLY (melanoma cell lines [3]; [21]): −0.5886 | ES, TYPE_III_SECRETION_SYSTEM (melanoma cell lines [3]; [21]): −0.5886 | NES, ATP_SYNTHESIS (melanoma cell lines [3]; [21]): −1.651 | NES, FLAGELLAR_ASSEMBLY (melanoma cell lines [3]; [21]): −1.651 | NES, TYPE_III_SECRETION_SYSTEM (melanoma cell lines [3]; [21]): −1.651 | ES, PHOTOSYNTHESIS (melanoma cell lines [3]; [22]): −0.5675 | NES, PHOTOSYNTHESIS (melanoma cell lines [3]; [22]): −1.596 | ES, PHENYLALANINE_METABOLISM (melanoma cell lines [3]; [23]): −0.5653 | NES, PHENYLALANINE_METABOLISM (melanoma cell lines [3]; [23]): −1.644 | ES, BRENTANI_CYTOSKELETON (melanoma cell lines [3]; [24]): −0.5522 | NES, BRENTANI_CYTOSKELETON (melanoma cell lines [3]; [24]): −1.762 | ES, LIAN_MYELOID_DIFF_GRANULE (melanoma cell lines [3]; [25]): −0.6115 | NES, LIAN_MYELOID_DIFF_GRANULE (melanoma cell lines [3]; [25]): −1.565 | ES, TYROSINE_METABOLISM (melanoma cell lines [3]; [26]): −0.5609 | NES, TYROSINE_METABOLISM (melanoma cell lines [3]; [26]): −1.668 | ES, HPV31_DN (melanoma cell lines [3]; [27]): −0.511 | NES, HPV31_DN (melanoma cell lines [3]; [27]): −1.584 | ES, GLUCONEOGENESIS (melanoma cell lines [3]; [28]): −0.455 | NES, GLUCONEOGENESIS (melanoma cell lines [3]; [28]): −1.548 | ES, OXIDATIVE_PHOSPHORYLATION (melanoma cell lines [3]; [29]): −0.5314 | NES, OXIDATIVE_PHOSPHORYLATION (melanoma cell lines [3]; [29]): −1.765 | ES, VANASSE_BCL2_TARGETS (melanoma cell lines [3]; [30]): −0.3981 | NES, VANASSE_BCL2_TARGETS (melanoma cell lines [3]; [30]): −1.55 | ES, TPA_RESIST_MIDDLE_DN (melanoma cell lines [3]; [31]): −0.3946 | NES, TPA_RESIST_MIDDLE_DN (melanoma cell lines [3]; [31]): −1.586 | citric acid cycle and oxidative phosphorylation gene sets (melanoma cell lines [3]; melanoma cells treated with PD0325901): trend towards induction | ERK phosphorylation (melanoma cell lines [4]): Suppression | expression of TRPM1 and other direct targets of MITF [5]: induced | PGC1α mRNA (public microarray) [6]: only affected PGC1α mRNA in melanoma cell lines

Cn1c(=O)c(F)c(Nc2ccc(I)cc2F)c2c(=O)n(C[C@@H](O)CO)cnc21 [TAK-733]
IC50 (MEK): 3.2 nM

CC[C@@H]1/C=C/C=C/C[C@H](C)[C@H](O)[C@](C)(O)C(=O)[C@H](C)[C@@H](O)[C@H](C)C(=O)[C@H](C)[C@@H](O)[C@H](C)/C=C/C(=O)O[C@H]2[C@@H](C)[C@@H](CC1)O[C@@]1(CC[C@@H](C)[C@@H](C[C@H](C)O)O1)[C@@H]2C [oligomycin A]
Combination Index with PLX4720 (additively enhanced the efficacy of PLX4720) (melanoma cells (M14); in vitro, cell number after 72 hrs): 0.9

CNC(=O)c1cc(Oc2ccc(NC(=O)Nc3ccc(Cl)c(C(F)(F)F)c3)cc2)ccn1 [sorafenib]
clinical responses (KIT mutated melanoma): clinical responses

CN(C)c1cc(NC(=O)CNC(C)(C)C)c(O)c2c1C[C@H]1C[C@H]3[C@H](N(C)C)C(O)=C(C(N)=O)C(=O)[C@@]3(O)C(O)=C1C2=O [tigecycline, N-[(5aR,6aS,7S,9Z,10aS)-9-[amino(hydroxy)methylidene]-4,7-bis(dimethylamino)-1,10a,12-trihydroxy-8,10,11-trioxo-5,5a,6,6a,7,8,9,10,10a,11-decahydrotetracen-2-yl]-2-(tert-butylamino)acetamide]
apoptosis induced by BRAF inhibitor PLX4720 (apoptosis): strongly potentiates apoptosis
